This note sets out measurements from patent US4225472A, “Truncated somatostatin analogs” (American Home Products Corporation, priority 1979, dated 1980).

Positions of bridges follow the written chain, without caps; N, C: chain ends. Non-standard residues stand in square brackets, D forms with d. Residues, ends and D or L forms follow the SMILES beside them.

In test [1] the test system is growth hormone (GH). Nature of the test: Duration of activity, growth hormone level at 2 and 4 hours. Format: in vivo. The following applies: dose 1,000 μg/kg, *p<0.01. From the text:
The duration of activity of the product of Example 2 was as follows: […]

For the next test, the system named is insulin. Nature of the test: Arginine-stimulated Nembutal-anesthetized rats, blood insulin by radioimmunoassay. Format: in vivo, rat. The conditions noted are these: albino male rats, dose 100 μg/kg subcutaneous, arginine 10 min later, blood 5 min after arginine; control 74 ± 4. How it is done: (§1) The product of the preceding examples illustrates the selective activity of the compounds of this invention for growth hormone and glucagon suppression in the following standard procedure:
(§2) Albino male rats are administered Nembutal intraperitoneally at a dose of 50 milligrams per kilogram. Fifteen minutes later a subcutaneous injection of the test compound or physiological saline (control) is administered. Ten minutes later 0.5 milliliters of arginine (300 milligrams per milliliter, pH 7.2) is injected into the heart. Five minutes after receipt of the arginine the rats are decapitated and blood is collected into trasylol-EDTA. An appropriate aliquot is assayed for growth hormone (GH), insulin, and glucagon by radioimmunoassay.

For test [2], the system named is growth hormone (GH). Nature of the test: Arginine-stimulated Nembutal-anesthetized rats, blood growth hormone by radioimmunoassay. Format: in vivo, rat. The following applies: albino male rats, dose 100 μg/kg subcutaneous, arginine 10 min later, blood 5 min after arginine; control 488 ± 82; *p<0.05. On the procedure:
as §1, §2

In a further test the test system is glucagon. Nature of the test: Arginine-stimulated Nembutal-anesthetized rats, blood glucagon by radioimmunoassay. Format: in vivo, rat. The conditions noted are these: albino male rats, dose 100 μg/kg subcutaneous, arginine 10 min later, blood 5 min after arginine; control 133 ± 13; *p<0.05. On the procedure: as §1, §2

As for `C[C@@H](O)[C@@H]1NC(=O)[C@H](CCCCN)NC(=O)[C@@H](Cc2c[nH]c3ccccc23)NC(=O)[C@H](Cc2c[nH]c3ccccc23)NC(=O)[C@H](Cc2ccccc2)NC(=O)[C@@H](N)CSSC[C@H](C(=O)O)NC(=O)[C@H](Cc2ccccc2)NC1=O` [Example 2, L-Cysteinyl-L-phenylalanyl-L-tryptophyl-D-tryptophyl-L-lysyl-L-threonyl-L-phenylalanyl-D-cysteine cyclic (1-8) disulfide] (H-CFW[dW]KTF[dC]-OH; disulfide 1-8), the GH in the test with growth hormone (GH) [1] (2 hours, control 369 ± 60) was 60 ± 6 ng/mL; in the test on growth hormone (GH) [1] (4 hours, control 354 ± 68) it was 75 ± 10 ng/mL; in the test with growth hormone (GH) [2], 191 ± 60 ng/mL. The INS in the test on insulin is listed as 69 ± 4 μU/ml. This compound also gave a GLUN with glucagon of 60 ± 12 pg/mL.
